Data on one compound can be found in ChEMBL document CHEMBL3739366, “Discovery of HTL6641, a dual orexin receptor antagonist with differentiated pharmacodynamic properties” (Medchemcomm, 2015).

For orientation: half-life means the time in which the quantity being followed falls by half. Usually IC50 stands for the point on the concentration scale where inhibition reaches its midpoint. One may read the Ki as the equilibrium dissociation constant of an inhibitor or competing ligand from its target. By Tmax is commonly meant the time at which the peak concentration occurs. As usually defined, the clearance is the volume of plasma or blood freed of the substance per unit of time.

One data set concerns Salmonella typhimurium. Kind of data set: Genotoxicity in Salmonella typhimurium by Ames test in presence of S9 fraction. The format is toxicity, organism-based. The settings on record: salmonella enterica subsp. enterica serovar typhimurium.
A short description of data set [1]: Half life in beagle dog at 1 mg/kg, po. The format is ADME, organism-based, Canis lupus familiaris. The settings on record: in vivo.
The next data set concerns the target Cytochrome P450 3A4 (Homo sapiens, UniProt P08684). As to the kind of experiment: Inhibition of CYP3A4 (unknown origin). The format is ADME.
In data set [2] the target is T1, Orexin/Hypocretin receptor type 1 (Homo sapiens) (UniProt O43613).
T1 sequence (whole entry): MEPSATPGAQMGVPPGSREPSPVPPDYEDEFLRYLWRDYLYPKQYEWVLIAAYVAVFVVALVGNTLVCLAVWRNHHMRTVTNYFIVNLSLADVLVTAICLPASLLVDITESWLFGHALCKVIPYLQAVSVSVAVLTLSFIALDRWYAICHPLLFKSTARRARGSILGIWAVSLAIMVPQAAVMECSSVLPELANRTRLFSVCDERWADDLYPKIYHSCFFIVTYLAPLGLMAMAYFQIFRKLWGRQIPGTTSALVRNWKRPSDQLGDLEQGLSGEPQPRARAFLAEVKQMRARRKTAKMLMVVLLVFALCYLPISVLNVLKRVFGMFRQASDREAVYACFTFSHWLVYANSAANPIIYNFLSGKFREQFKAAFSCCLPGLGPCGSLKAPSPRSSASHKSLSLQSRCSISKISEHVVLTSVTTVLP

Another data set has as its target T2, Orexin receptor type 2 (Homo sapiens, UniProt O43614).
T2 sequence (O43614 whole entry): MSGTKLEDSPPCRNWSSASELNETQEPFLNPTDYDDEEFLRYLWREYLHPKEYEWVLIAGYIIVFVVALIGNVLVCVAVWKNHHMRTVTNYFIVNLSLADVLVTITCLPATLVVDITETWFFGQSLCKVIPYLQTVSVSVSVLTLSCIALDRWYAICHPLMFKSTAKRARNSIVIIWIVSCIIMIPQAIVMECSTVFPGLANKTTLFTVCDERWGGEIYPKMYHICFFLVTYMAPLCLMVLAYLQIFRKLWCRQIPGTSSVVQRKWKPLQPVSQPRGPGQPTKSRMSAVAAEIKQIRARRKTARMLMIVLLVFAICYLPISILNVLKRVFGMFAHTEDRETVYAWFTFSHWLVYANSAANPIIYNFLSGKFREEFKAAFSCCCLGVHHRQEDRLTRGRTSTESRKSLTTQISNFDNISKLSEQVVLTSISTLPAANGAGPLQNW
As to the kind of experiment: Displacement of [3H]EMPA from human orexin receptor-2 expressed in HEK293 cells after 90 mins by scintillation counting. It counts as cell-based.

The subject of data set [3] is Rattus norvegicus. Kind of data set: Antiinsomnic activity in CD1 rat assessed as increase of REM sleep at 10 mg/kg, po administered at circadian time 18 hrs measured after 3 hrs. The format is functional.
A short description of data set [4]: Bidirectional apparent permeability of the compound across human Caco2 cells. It counts as ADME, cell-based. To be noted: Caco-2, read-out: permeability. On the technique in general: Passage across Caco-2 layers is used to estimate intestinal permeability.
Data set [5] addresses Voltage-gated inwardly rectifying potassium channel KCNH2 (Homo sapiens, UniProt Q12809). As to the kind of experiment: Inhibition of human ERG.
Data set [6] is described as follows: Ratio of drug level in brain to plasma in Sprague-Dawley rat at 1 mg/kg, iv after 0.5 hrs. It counts as ADME, organism-based. To be noted: read-out: BPR.
A short description of data set [7]: Tmax in beagle dog at 1 mg/kg, po. The format is ADME, organism-based, Canis lupus familiaris. The settings on record: in vivo.
Data set [8] can be described thus: Volume of distribution at steady state in Sprague-Dawley rat at 1 mg/kg, iv. To be noted: in vivo, read-out: Vdss. It counts as ADME, organism-based.
In data set [9] the target is T3, Orexin/Hypocretin receptor type 1 (Homo sapiens, UniProt O43613).
T3 sequence (O43613 whole entry): T1 sequence (whole entry)
As to the kind of experiment: Displacement of [3H]-4-(2,6-Difluoro-4-methoxybenzyl)-2-(5,6-dimethoxypyridin-3-yl)-2H-1,2,4-benzothiadiazin-3(4H)-one 1,1-dioxide from orexin receptor-1 (unknown origin) after 90 mins.

The nature of data set [10]: Clearance in beagle dog at 1 mg/kg, iv. To be noted: in vivo. The format is ADME, organism-based, Canis lupus familiaris.
Data set [11] can be described thus: Tmax in Sprague-Dawley rat at 2 mg/kg, po. It counts as ADME, organism-based. The settings on record: in vivo.
The next data set concerns the target T4, Cytochrome P450 2C8 (Homo sapiens, UniProt P10632).
T4 sequence (P10632 whole entry): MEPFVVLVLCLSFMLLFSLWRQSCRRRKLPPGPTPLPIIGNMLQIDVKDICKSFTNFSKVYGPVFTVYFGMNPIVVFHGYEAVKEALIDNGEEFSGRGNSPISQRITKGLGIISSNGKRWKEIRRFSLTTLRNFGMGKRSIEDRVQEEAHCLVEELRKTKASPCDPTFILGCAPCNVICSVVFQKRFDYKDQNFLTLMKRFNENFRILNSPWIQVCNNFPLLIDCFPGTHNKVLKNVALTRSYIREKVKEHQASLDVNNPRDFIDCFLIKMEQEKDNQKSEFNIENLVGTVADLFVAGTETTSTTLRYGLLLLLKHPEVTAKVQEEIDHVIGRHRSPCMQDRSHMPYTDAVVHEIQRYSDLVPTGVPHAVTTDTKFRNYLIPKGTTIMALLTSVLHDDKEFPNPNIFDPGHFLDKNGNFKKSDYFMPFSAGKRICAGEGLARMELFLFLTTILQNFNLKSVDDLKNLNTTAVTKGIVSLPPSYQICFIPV
Kind of data set: Inhibition of CYP2C8 (unknown origin). The format is ADME.

Data set [12] in a line: Volume of distribution at steady state in beagle dog at 1 mg/kg, iv. It counts as ADME, organism-based, Canis lupus familiaris. To be noted: in vivo, read-out: Vdss.
Data set [13] can be described thus: Plasma protein binding in mouse. The settings on record: read-out: PPB (converted). It counts as ADME, cell-free.
A short description of data set [14]: Half life in rat liver microsomes. The format is ADME. (In general: Microsomes from liver hold many membrane-bound enzymes, among them those of drug oxidation.)
Data set [15] concerns Rattus norvegicus. Kind of data set: Antiinsomnic activity in CD1 rat assessed as reduction of time taken for latency to first REM episode at 10 mg/kg, po administered at 18 hrs after circadian time. The format is functional. Set-up: scale not given: the % may be the effect or the level left.
Data set [16] is described as follows: Half life in Sprague-Dawley rat at 2 mg/kg, po. The format is ADME, organism-based. The settings on record: in vivo.

Chain of Voltage-gated inwardly rectifying potassium channel KCNH2 (Q12809 whole entry): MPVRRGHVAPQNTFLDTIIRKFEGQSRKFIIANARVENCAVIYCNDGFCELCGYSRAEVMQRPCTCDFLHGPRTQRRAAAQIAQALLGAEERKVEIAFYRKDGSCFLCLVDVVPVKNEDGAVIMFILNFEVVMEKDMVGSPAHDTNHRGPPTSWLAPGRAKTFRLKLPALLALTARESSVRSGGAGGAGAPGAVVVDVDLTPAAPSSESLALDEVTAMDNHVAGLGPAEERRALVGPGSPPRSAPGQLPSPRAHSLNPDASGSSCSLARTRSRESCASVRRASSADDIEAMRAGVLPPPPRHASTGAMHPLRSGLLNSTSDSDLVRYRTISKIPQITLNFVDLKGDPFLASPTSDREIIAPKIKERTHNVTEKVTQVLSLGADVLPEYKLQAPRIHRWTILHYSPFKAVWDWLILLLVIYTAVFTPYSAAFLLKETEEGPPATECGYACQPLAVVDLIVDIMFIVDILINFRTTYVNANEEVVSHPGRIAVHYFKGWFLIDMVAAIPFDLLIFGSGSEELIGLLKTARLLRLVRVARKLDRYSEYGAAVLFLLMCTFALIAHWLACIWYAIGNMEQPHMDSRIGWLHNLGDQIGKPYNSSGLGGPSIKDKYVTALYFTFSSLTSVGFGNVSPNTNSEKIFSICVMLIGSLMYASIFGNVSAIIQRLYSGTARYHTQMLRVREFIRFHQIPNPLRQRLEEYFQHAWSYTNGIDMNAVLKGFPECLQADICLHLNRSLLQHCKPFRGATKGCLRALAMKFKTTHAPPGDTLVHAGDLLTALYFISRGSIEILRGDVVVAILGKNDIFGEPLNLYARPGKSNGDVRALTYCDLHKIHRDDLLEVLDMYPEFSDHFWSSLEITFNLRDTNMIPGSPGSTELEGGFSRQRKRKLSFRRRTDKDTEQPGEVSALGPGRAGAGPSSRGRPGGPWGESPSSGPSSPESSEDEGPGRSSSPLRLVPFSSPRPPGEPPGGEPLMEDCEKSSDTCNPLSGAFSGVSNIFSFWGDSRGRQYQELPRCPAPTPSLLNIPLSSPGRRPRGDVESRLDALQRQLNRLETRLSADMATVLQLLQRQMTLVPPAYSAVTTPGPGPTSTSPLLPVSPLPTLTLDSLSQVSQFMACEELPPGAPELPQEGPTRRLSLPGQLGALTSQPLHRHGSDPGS
Chain of Cytochrome P450 3A4 (P08684 whole entry): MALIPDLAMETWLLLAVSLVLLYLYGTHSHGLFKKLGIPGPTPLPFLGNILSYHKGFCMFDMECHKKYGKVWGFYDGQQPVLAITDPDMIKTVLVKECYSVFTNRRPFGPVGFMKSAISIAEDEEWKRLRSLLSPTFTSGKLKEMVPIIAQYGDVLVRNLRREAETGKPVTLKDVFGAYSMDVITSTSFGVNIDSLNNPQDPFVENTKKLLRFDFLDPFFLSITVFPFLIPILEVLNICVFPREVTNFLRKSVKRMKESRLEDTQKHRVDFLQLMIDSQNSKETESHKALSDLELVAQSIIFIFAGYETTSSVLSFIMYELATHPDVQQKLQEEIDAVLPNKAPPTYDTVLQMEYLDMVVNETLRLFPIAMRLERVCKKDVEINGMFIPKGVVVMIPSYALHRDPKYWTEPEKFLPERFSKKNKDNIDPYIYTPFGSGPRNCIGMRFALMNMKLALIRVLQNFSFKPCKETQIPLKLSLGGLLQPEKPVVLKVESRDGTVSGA

On to `COc1cc(N2C(=O)N(Cc3c(F)cc(F)cc3F)c3ncccc3S2(=O)=O)cnc1OC`, for which the Activity result with Salmonella typhimurium is “Non-toxic”; in the data set on Rattus norvegicus [3] it was 69.6%; in the data set with Rattus norvegicus [15] it was 35%. For the same compound, the results for the half-life in data set [1], in [14] and in data set [16] were 426 min, 23 min and 108 min, respectively. Besides, the IC50 (on Cytochrome P450 3A4; in [5]; against Cytochrome P450 2C8) was greater than 10000 nM throughout. Moreover, the T1/2 in [2] came to 0.8 min. Moreover, the inhibitory constant (Ki) is 2.51 nM on Orexin receptor type 2 and 20 nM in data set [9]. Moreover, the Papp in data set [4] came to 52 ×10⁻⁶ cm/s. For the same compound, the Kp at 0.5 h in data set [6] worked out at 0.49. Further, the time to peak (Tmax) in [7] came to 24 min; in data set [11] it was 30 min. For the same compound, the Vd was 2.1 L/kg in [8] and 3 L/kg in data set [12]. The same compound had a clearance in data set [10] of 13 mL/min/kg. For the same compound, the fraction unbound in data set [13] was 0.008.
